molecular target: LSD-1 enzyme (Homo sapiens (Human), UniProt O60341); assay: LANCE LSD1/KDM1A demethylase assay (LSD1 histone demethylase biochemical assay); conditions: 1 nM LSD-1 enzyme, 1 hour preincubation at 25° C., 0.4 μM Biotin-labeled Histone H3 peptide substrate
Method: LSD1 Histone Demethylase Biochemical Assay
LANCE LSD1/KDM1A demethylase assay-10 μL of 1 nM LSD-1 enzyme (ENZO BML-SE544-0050) in the assay buffer (50 mM Tris, pH 7.5, 0.01% Tween-20, 25 mM NaCl, 5 mM DTT) were preincubated for 1 hour at 25° C. with 0.8 μL compound/DMSO dotted in black 384 well polystyrene plates. […] Reactions were stopped by addition of 10 μL 1× LANCE Detection Buffer (PerkinElmer CR97-100) supplemented with 1.5 nM Eu-anti-unmodified H3K4 Antibody (PerkinElmer TRF0404), and 225 nM LANCE Ultra Streptavidin (PerkinElmer TRF102) along with 0.9 mM Tranylcypromine-HCl (Millipore 616431). After stopping the reactions plates were incubated for 30 minutes and read on a PHERAstar FS plate reader (BMG Labtech).

**Q.** How did the IC50 turn out when `COC(=O)N(C)c1ccc(-c2c(-c3ccc(C#N)cc3)nc(OC[C@@H]3CCCN(C)C3)c3cncn23)cc1F` [Example 87, (R)-methyl (4-(6-(4-cyanophenyl)-8-((1-methylpiperidin-3-yl)methoxy)imidazo[1,5-a]pyrazin-5-yl)-2-fluorophenyl)(methyl)carbamate] was run?
**A.** Its IC50 is no more than 50 nM.

**Q.** With `Cc1cc(-c2c(-c3ccc(C#N)cc3)nc(N3CCC(N(C)C)CC3)c3cncn23)cnc1C` [Example 89, 4-[8-[4-(dimethylamino)piperidin-1-yl]-5-(5,6-dimethylpyridin-3-yl)imidazo[1,5-a]pyrazin-6-yl]benzonitrile] as the compound, how does the IC50 read?
**A.** The IC50 was no more than 50 nM.

**Q.** How did the IC50 turn out when `COc1ncc(-c2c(-c3ccc(C#N)cc3)nc(N3CCC(N(C)C)CC3)c3cncn23)cc1F` [Example 90, 4-[8-[4-(dimethylamino)piperidin-1-yl]-5-(5-fluoro-6-methoxypyridin-3-yl)imidazo[1,5-a]pyrazin-6-yl]benzonitrile] was run?
**A.** Its IC50 is no more than 50 nM.

**Q.** How did the IC50 turn out when `Cc1ccc(-c2c(-c3ccc(C#N)cc3)nc(N3CCC(N(C)C)CC3)c3cncn23)cc1CO` [Example 91, 4-{8-[4-(dimethylamino)piperidin-1-yl]-5-[3-(hydroxymethyl)-4-methylphenyl]imidazo[1,5-a]pyrazin-6-yl}benzonitrile] was run?
**A.** The IC50 was no more than 50 nM.

**Q.** `Cc1ccc(-c2c(-c3ccc(C#N)cc3)nc(N3CCC(N(C)C)CC3)c3cncn23)c(CO)c1` [Example 92, 4-{8-[4-(dimethylamino)piperidin-1-yl]-5-[2-(hydroxymethyl)-4-methylphenyl]imidazo[1,5-a]pyrazin-6-yl}benzonitrile] was tested. Which IC50 did it give?
**A.** The IC50 was no more than 50 nM.

**Q.** How did the IC50 turn out when `COc1ncc(-c2c(-c3ccc(C#N)cc3)nc(N3CCC(N(C)C)CC3)c3cncn23)cc1C` [Example 93, 4-[8-[4-(dimethylamino)piperidin-1-yl]-5-(6-methoxy-5-methylpyridin-3-yl)imidazo[1,5-a]pyrazin-6-yl]benzonitrile] was run?
**A.** Its IC50 is no more than 50 nM.

**Q.** Which IC50 does the source give for `COC(=O)N(C)c1ccc(-c2c(-c3ccc(C#N)cc3)nc(N3CCC(N(C)C)CC3)c3cncn23)cc1` [Example 95, methyl (4-(6-(4-cyanophenyl)-8-(4-(dimethylamino)piperidin-1-yl)imidazo[1,5-a]pyrazin-5-yl)phenyl)(methyl)carbamate] here?
**A.** Its IC50 is no more than 50 nM.

**Q.** `Cc1ncc(-c2c(-c3ccc(C#N)cc3)nc(N3CCC(N(C)C)CC3)c3cncn23)cc1F` [Example 97, 4-[8-[4-(dimethylamino)piperidin-1-yl]-5-(5-fluoro-6-methylpyridin-3-yl)imidazo[1,5-a]pyrazin-6-yl]benzonitrile] was tested. Which IC50 did it give?
**A.** Its IC50 is no more than 50 nM.

**Q.** `CN(C)C1CCN(c2nc(-c3ccc(C#N)cc3)c(-c3ccc(OC(F)F)nc3)n3cncc23)CC1` [Example 98, 4-{5-[6-(difluoromethoxy)pyridin-3-yl]-8-[4-(dimethylamino)piperidin-1-yl]imidazo[1,5-a]pyrazin-6-yl}benzonitrile] was tested. Which IC50 did it give?
**A.** Its IC50 is no more than 50 nM.

**Q.** Which IC50 does the source give for `CCOc1ccc(-c2c(-c3ccc(C#N)cc3)nc(N3CCC(N(C)C)CC3)c3cncn23)cn1` [Example 99, 4-[8-[4-(dimethylamino)piperidin-1-yl]-5-(6-ethoxypyridin-3-yl)imidazo[1,5-a]pyrazin-6-yl]benzonitrile] here?
**A.** Its IC50 is no more than 50 nM.

**Q.** For `CN(C)C1CCN(c2nc(-c3ccc(C#N)cc3)c(-c3ccc4c(cnn4C)c3)n3cncc23)CC1` [Example 100, 4-[8-[4-(dimethylamino)piperidin-1-yl]-5-(1-methyl-1H-indazol-5-yl)imidazo[1,5-a]pyrazin-6-yl]benzonitrile], which IC50 is on record?
**A.** Its IC50 is no more than 50 nM.

**Q.** How did the IC50 turn out when `CN1CCC[C@@H](COc2nc(-c3ccc(C#N)cc3)c(-c3ccc4c(c3)CC(O)C4)n3cncc23)C1` (stereo partly drawn) [Example 101, 4-(5-(2-hydroxy-2,3-dihydro-1H-inden-5-yl)-8-{[(3R)-1-methylpiperidin-3-yl]methoxy}imidazo[1,5-a]pyrazin-6-yl)benzonitrile] was run?
**A.** Its IC50 is no more than 50 nM.

**Q.** For `CN1CCC[C@@H](COc2nc(-c3ccc(C#N)c(F)c3)c(-c3ccc4c(c3)CCC(=O)N4C)n3cncc23)C1` [Example 102, 2-fluoro-4-(5-(1-methyl-2-oxo-1,2,3,4-tetrahydroquinolin-6-yl)-8-{[(3R)-1-methylpiperidin-3-yl]methoxy}imidazo[1,5-a]pyrazin-6-yl)benzonitrile], which IC50 is on record?
**A.** The IC50 was no more than 50 nM.

**Q.** With `CN(C)C1CCN(c2nc(-c3ccc(C#N)cc3)c(-c3ccc4nccnc4c3)n3cncc23)CC1` [Example 103, 4-(8-(4-(dimethylamino)piperidin-1-yl)-5-(quinoxalin-6-yl)imidazo[1,5-a]pyrazin-6-yl)benzonitrile] as the compound, how does the IC50 read?
**A.** The IC50 was no more than 50 nM.

**Q.** `CN1C(=O)COc2cc(-c3c(-c4ccc(C#N)cc4)nc(N4CCC(N(C)C)CC4)c4cncn34)cnc21` [Example 105, 4-[8-[4-(dimethylamino)piperidin-1-yl]-5-(4-methyl-3-oxo-3,4-dihydro-2H-pyrido[3,2-b][1,4]oxazin-7-yl)imidazo[1,5-a]pyrazin-6-yl]benzonitrile] was tested. Which IC50 did it give?
**A.** The IC50 was no more than 50 nM.

**Q.** `CN1C(=O)OCc2cc(-c3c(-c4ccc(C#N)cc4)nc(N4CCC(N(C)C)CC4)c4cncn34)ccc21` [Example 106, 4-[8-[4-(dimethylamino)piperidin-1-yl]-5-(1-methyl-2-oxo-1,4-dihydro-2H-3,1-benzoxazin-6-yl)imidazo[1,5-a]pyrazin-6-yl]benzonitrile] was tested. Which IC50 did it give?
**A.** The IC50 was no more than 50 nM.

**Q.** How did the IC50 turn out when `CN(C)C1CCN(c2nc(-c3ccc(C#N)cc3)c(-c3cnc4c(c3)ncn4C)n3cncc23)CC1` [Example 107, 4-[8-[4-(dimethylamino)piperidin-1-yl]-5-(3-methyl-3H-imidazo[4,5-b]pyridin-6-yl)imidazo[1,5-a]pyrazin-6-yl]benzonitrile] was run?
**A.** Its IC50 is no more than 50 nM.

**Q.** Which IC50 does the source give for `CCn1c(=O)oc2cc(-c3c(-c4ccc(C#N)cc4)nc(N4CCC(N(C)C)CC4)c4cncn34)ccc21` [Example 108, 4-[8-[4-(dimethylamino)piperidin-1-yl]-5-(3-ethyl-2-oxo-2,3-dihydro-1,3-benzoxazol-6-yl)imidazo[1,5-a]pyrazin-6-yl]benzonitrile] here?
**A.** The IC50 was no more than 50 nM.

**Q.** How did the IC50 turn out when `CN(C)C1CCN(c2nc(-c3ccc(C#N)cc3)c(-c3ccc4c(c3F)n(C)c(=O)n4C)n3cncc23)CC1` [Example 109, 4-[8-[4-(dimethylamino)piperidin-1-yl]-5-(4-fluoro-1,3-dimethyl-2-oxo-2,3-dihydro-1H-benzimidazol-5-yl)imidazo[1,5-a]pyrazin-6-yl]benzonitrile] was run?
**A.** The IC50 was no more than 50 nM.

**Q.** Which IC50 does the source give for `CCN1CCC[C@@H](COc2nc(-c3ccc(C#N)cc3)c(-c3cc4oc(=O)n(C)c4cc3F)n3cncc23)C1` [Example 111, 4-[8-{[(3R)-1-ethylpiperidin-3-yl]methoxy}-5-(5-fluoro-3-methyl-2-oxo-2,3-dihydro-1,3-benzoxazol-6-yl)imidazo[1,5-a]pyrazin-6-yl]benzonitrile] here?
**A.** The IC50 was no more than 50 nM.

**Q.** For `CN(C)[C@H]1CCN(c2nc(-c3ccc(C#N)cc3)c(-c3cc4oc(=O)n(C)c4cc3F)n3cncc23)C1` [Example 113, 4-[8-[(3S)-3-(dimethylamino)pyrrolidin-1-yl]-5-(5-fluoro-3-methyl-2-oxo-2,3-dihydro-1,3-benzoxazol-6-yl)imidazo[1,5-a]pyrazin-6-yl]benzonitrile], which IC50 is on record?
**A.** The IC50 was no more than 50 nM.

**Q.** For `CCN1CCC[C@@H](COc2cc(-c3ccc(C#N)cc3)c(-c3ccc4c(c3)CC(=O)N4C)n3cncc23)C1` [Example 114, (R)-4-(8-((1-ethylpiperidin-3-yl)methoxy)-5-(1-methyl-2-oxoindolin-5-yl)imidazo[1,5-a]pyridin-6-yl)benzonitrile], which IC50 is on record?
**A.** The IC50 was no more than 50 nM.

**Q.** Which IC50 does the source give for `COCCN1CCC[C@@H](COc2cc(-c3ccc(C#N)cc3)c(-c3cnc4c(c3)OCCO4)n3cncc23)C1` [Example 115, (R)-4-(5-(2,3-dihydro-[1,4]dioxino[2,3-b]pyridin-7-yl)-8-((1-(2-methoxyethyl)piperidin-3-yl)methoxy)imidazo[1,5-a]pyridin-6-yl)benzonitrile] here?
**A.** The IC50 was no more than 50 nM.

**Q.** How did the IC50 turn out when `CN1CCC[C@@H](COc2cc(-c3ccc(C#N)cc3)c(-c3cnc4c(c3)OCCN4C)n3cncc23)C1` [Example 116, (R)-4-(5-(4-methyl-3,4-dihydro-2H-pyrido[3,2-b][1,4]oxazin-7-yl)-8-((1-methylpiperidin-3-yl)methoxy)imidazo[1,5-a]pyridin-6-yl)benzonitrile] was run?
**A.** Its IC50 is no more than 50 nM.

**Q.** `CC(O)CN1CCC[C@@H](COc2cc(-c3ccc(C#N)cc3)c(-c3ccc4nccnc4c3)n3cncc23)C1` (stereo partly drawn) [Example 120, 4-(8-(((3R)-1-(2-hydroxypropyl)piperidin-3-yl)methoxy)-5-(quinoxalin-6-yl)imidazo[1,5-a]pyridin-6-yl)benzonitrile] was tested. Which IC50 did it give?
**A.** Its IC50 is no more than 50 nM.

**Q.** Which IC50 does the source give for `COCCN1CCC[C@@H](COc2cc(-c3ccc(C#N)cc3)c(-c3cnc4ccoc4c3)n3cncc23)C1` [Example 121, 4-(5-furo[3,2-b]pyridin-6-yl-8-{[(3R)-1-(2-methoxyethyl)piperidin-3-yl]methoxy}imidazo[1,5-a]pyridin-6-yl)benzonitrile] here?
**A.** The IC50 was no more than 50 nM.

**Q.** For `COCCN1CCC[C@@H](COc2cc(-c3ccc(C#N)cc3)c(-c3cnc4c(c3)CCCO4)n3cncc23)C1` [Example 122, (R)-4-(5-(3,4-dihydro-2H-pyrano[2,3-b]pyridin-6-yl)-8-((1-(2-methoxyethyl)piperidin-3-yl)methoxy)imidazo[1,5-a]pyridin-6-yl)benzonitrile], which IC50 is on record?
**A.** Its IC50 is no more than 50 nM.

**Q.** For `CC(O)c1ccc(-c2c(-c3ccc(C#N)cc3)cc(OC[C@@H]3CCCN(C)C3)c3cncn23)cc1` (stereo partly drawn) [Example 123, 4-(5-[4-(1-hydroxyethyl)phenyl]-8-{[(3R)-1-methylpiperidin-3-yl]methoxy}imidazo[1,5-a]pyridin-6-yl)benzonitrile], which IC50 is on record?
**A.** The IC50 was no more than 50 nM.

**Q.** For `Cc1ccc(-c2c(-c3ccc(C#N)cc3)cc(OC[C@@H]3CCCN(C)C3)c3cncn23)cn1` [Example 125, 4-[8-{[(3R)-1-methylpiperidin-3-yl]methoxy}-5-(6-methylpyridin-3-yl)imidazo[1,5-a]pyridin-6-yl]benzonitrile], which IC50 is on record?
**A.** Its IC50 is no more than 50 nM.
